The text below walks through data of patent US5750362A, “Methods for identifying substances with a potential herbicidal or growth-regulating action by means of plant transporter proteins, the use of the transporter proteins, and substances with a herbicidal and growth-regulating action” (BASF Aktiengesellschaft, priority 1993, dated 1998).

Like-named read-outs stand apart in the source and are kept apart here.

Test [1] concerns the target T1, sucrose transporter S21 (SoSUT1) (Spinacia oleracea, UniProt Q03411).
T1 construct: expressed in transfected cells; host or cells: Saccharomyces cerevisiae SUSY7
T1 sequence (Q03411 1-525): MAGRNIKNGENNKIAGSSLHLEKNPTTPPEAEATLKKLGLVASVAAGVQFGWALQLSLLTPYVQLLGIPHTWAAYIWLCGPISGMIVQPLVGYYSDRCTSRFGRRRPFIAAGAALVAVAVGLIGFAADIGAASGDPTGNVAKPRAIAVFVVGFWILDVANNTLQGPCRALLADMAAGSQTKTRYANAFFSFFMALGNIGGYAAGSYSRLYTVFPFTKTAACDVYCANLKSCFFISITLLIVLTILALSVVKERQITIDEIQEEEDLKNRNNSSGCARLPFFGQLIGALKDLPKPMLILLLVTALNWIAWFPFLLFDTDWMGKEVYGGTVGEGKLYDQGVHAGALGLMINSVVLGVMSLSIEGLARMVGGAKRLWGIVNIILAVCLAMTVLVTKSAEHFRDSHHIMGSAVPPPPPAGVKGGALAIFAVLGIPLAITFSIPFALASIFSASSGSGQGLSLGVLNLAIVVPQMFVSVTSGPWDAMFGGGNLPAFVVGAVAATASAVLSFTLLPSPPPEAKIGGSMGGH
In words: [14C]-sucrose uptake by yeast strain SUSY7 expressing the spinach sucrose transporter. The test is classed as cell-based. Conditions: for remaining activity at 1000 µM: tested substance 1.0 mmol/l. How it is done: Yeast cells of the strain SUSY7 (Riesmeier et al., 1992, EMBO J. 11: 4705-4713) are used to identify substances which have an inhibitory effect on sucrose transporters from spinach. Cells of this strain are transformed with a cDNA sequence which codes for the sucrose transporter S21 (SoSUT1) from spinach and which ensures expression of a functional transporter in the cells. The yeast cells are cultured in minimal medium (SD+2% (w/v) sucrose, pH 3.8) at 28° C. and harvested in the logarithmic phase (OD600 =0.6). The cells are spun down at 4000 rpm for 10 minutes and washed twice with SD medium. A cell concentration of c=50 g/l in SD medium is adjusted according to the wet weight of the cells, and 200 μl aliquot fractions are taken. Before the actual reaction, the cells are incubated in 10 mM glucose for 5 min and adjusted to pH 3.8 with MES buffer. The reaction is started by adding 200 μl of a 0.2 mmol/l [14C]-sucrose solution (3 mCi/mmol) in SD medium (pH 3.8). After 20, 60, 120, 180 and 240 seconds, 70 μl portions of the suspension are removed and pipetted into 4 ml of ice-cold water in order to stop the reaction. The cells are filtered off on glass fiber filters and washed twice with ice-cold water. The radioactivity on the filters is subsequently determined in a liquid scintillation counter. The substances to be tested are added 30 seconds before addition of the sucrose. The uptake of radiolabeled sucrose without addition of a potential inhibitor is determined as one control. Cells of the strain SUSY7 which are not transformed with cDNA sequences coding for a sucrose transporter from spinach are employed as further control.
The various tested substances, their concentration and the activity of the transporter, shown as percentage activity of the control in which no potential inhibitors were added, are indicated. Substances which specifically show an inhibitory effect on the sucrose transporter S21 (SoSUT1), are tested for their herbicidal and growth-regulating effect on whole plants.

For test [2], the target named is T2, ammonium transporter AMT1 (Arabidopsis thaliana, UniProt P54144).
T2 construct: expressed in transfected cells; host or cells: Saccharomyces cerevisiae 26972c (mutations in MEP1 and MEP2)
T2 sequence (P54144 1-501): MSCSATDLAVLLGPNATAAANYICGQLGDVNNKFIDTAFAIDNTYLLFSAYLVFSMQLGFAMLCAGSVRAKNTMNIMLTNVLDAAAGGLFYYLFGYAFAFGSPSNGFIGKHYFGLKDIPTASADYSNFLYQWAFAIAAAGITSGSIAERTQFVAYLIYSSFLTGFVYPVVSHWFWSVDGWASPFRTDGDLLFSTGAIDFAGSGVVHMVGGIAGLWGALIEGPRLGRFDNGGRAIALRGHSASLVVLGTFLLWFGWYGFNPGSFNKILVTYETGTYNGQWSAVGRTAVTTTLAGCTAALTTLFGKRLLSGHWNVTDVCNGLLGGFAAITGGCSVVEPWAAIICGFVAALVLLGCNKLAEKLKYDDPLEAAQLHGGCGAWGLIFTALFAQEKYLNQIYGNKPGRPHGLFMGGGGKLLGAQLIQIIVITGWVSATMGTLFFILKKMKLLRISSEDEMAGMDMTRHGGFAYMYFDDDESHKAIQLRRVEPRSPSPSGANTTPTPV
Description: cell-based.
Description: The measurements of transport identify inhibitors of plant ammonium transporters are carried out with the structural analog methylamine because radiolabeled ammonium is not commercially obtainable.
The yeast cells are transformed by standard methods with cDNA sequences which code for an ammonium transporter from plants and which permit expression of a functional transporter in the yeast cells. […] The cells are cultured in NAAG-medium (2% glucose, 1.7 g/l yeast nitrogen-base w/o amino acids and ammonium sulfate (Difco), supplemented with 500 μg/ml L-proline) at 28 degrees Celsius, and harvested in the logarithmic phase (OD660.=0.6). The cells are then spun down in a centrifuge at 4000 rpm and 4 degrees Celsius for 10 minutes, washed twice with 20 mM sodium phosphate buffer, pH 7, and taken up in the same buffer to an 0D660 of 8. 200 μl aliquot fractions of the cell suspension are taken. 5 minutes before the actual measurement,the yeasts are activated by addition of 100 mM glucose and incubated at 30 degrees Celsius. To start the reaction, 100 μl of the cell suspension are added to 100 µl of reaction mixture (20 mM Na phosphate buffer, pH7; 18.5 kBq of [^14 C]-methylamine (NEN); 100 M methylamine; substance to be tested depending on the experiment (see FIG. 4)). In each case 10, 60, 120 and 180 seconds after starting the reaction, 50 μl aliquots are taken, added to 4 ml of ice-cold 5 mM methylamine solution and filtered on glass fibre filters. After the filters have been washed with a further 8 ml of a methylamine solution, the radioactivity on the filters is subsequently determined in a liquid scintillation counter. Inhibitors are added 60 seconds before adding the glucose.
The uptake of radiolabeled methylamine without addition of a potential inhibitor is determined as one control.

Test [3] deals with T3, sucrose transporter P62 (StSUT1) (Solanum tuberosum, UniProt Q43653).
T3 construct: whole-cell [14C]-sucrose uptake; no tag or borders given
T3 sequence (Q43653 1-516): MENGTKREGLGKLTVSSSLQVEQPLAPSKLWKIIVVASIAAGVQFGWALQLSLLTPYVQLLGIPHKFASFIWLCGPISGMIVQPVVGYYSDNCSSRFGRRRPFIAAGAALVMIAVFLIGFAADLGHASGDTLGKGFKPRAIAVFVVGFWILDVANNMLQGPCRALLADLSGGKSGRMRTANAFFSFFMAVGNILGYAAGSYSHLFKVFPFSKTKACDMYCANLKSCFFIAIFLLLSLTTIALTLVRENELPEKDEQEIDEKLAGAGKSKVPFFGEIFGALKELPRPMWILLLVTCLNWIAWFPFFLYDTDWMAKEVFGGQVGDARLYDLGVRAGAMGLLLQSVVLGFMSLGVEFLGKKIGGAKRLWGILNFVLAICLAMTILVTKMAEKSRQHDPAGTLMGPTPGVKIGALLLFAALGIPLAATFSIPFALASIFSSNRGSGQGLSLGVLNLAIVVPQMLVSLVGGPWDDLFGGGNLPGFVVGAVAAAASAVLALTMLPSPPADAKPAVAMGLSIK
In words: [14C]-sucrose uptake by yeast strain SUSY-7-P62 (StSUT1) expressing the potato sucrose transporter. Type of test: cell-based. Conditions: [14C]-sucrose uptake, pH 3.8. An excerpt: Yeast cells of the strain SUSY7 (Riesmeier et al., 1992, EMBO J. 11: 4705-4713) are used to identify substances which have an inhibitory effect on sucrose transporters from potato. Cells of this strain are transformed with a cDNA sequence which codes for the sucrose transporter P62 (StSUT1) from potato (WO 94/00574, Riesmeier et al., 1993, Plant Cell 5:1591-1598) and which ensures expression of a functional transporter in the cells. The resulting yeast strain was called SUSY-7-P62 (StSUT1). The yeast cells are cultured in minimal medium (SD +2% (w/v) sucrose, pH 3.8) at 28° C. and harvested in the logarithmic phase (OD600 =0.6). The cells are spun down at 4000 rpm for 10 minutes and washed twice with SD medium. A cell concentration of c=50 g/l in SD medium is adjusted according to the wet weight of the cells, and 200 Al aliquot fractions are taken. Before the actual reaction, the cells are incubated in 10 mM glucose for 5 min and adjusted to pH 3.8 with MES buffer. The reaction is started by adding 200 Al of a 0.2 mmol/l [14C]-sucrose solution (3 mCi/mmol) in SD medium (pH 3.8). After 20, 60, 120, 180 and 240 seconds, 70 μl portions of the suspension are removed and pipetted into 4 ml of ice-cold water in order to stop the reaction. The cells are filtered off on glass fiber filters and washed twice with ice-cold water. The radioactivity on the filters is subsequently determined in a liquid scintillation counter. The substances to be tested are added 30 seconds before addition of the sucrose. The uptake of radiolabeled sucrose without addition of a potential inhibitor is determined as one control. Cells of the strain SUSY7 which are not transformed with cDNA sequences coding for a sucrose transporter from potato are employed as further control.
The various tested substances, their concentration and the activity of the transporter, shown as percentage activity of the control in which no potential inhibitors were added, are indicated.

Where [4] appears, read: [14C]-sucrose uptake, pH 3.8, tested substance 2 mM, read-out: Activity relative to the control [%].
Where [5] appears, read: [14C]-sucrose uptake, pH 3.8, tested substance 2 mM.
The mark [6] stands for this setting: [14C]-sucrose uptake, pH 3.8, read-out: Activity relative to the control [%].
[7] abbreviates: pH 7, [14C]-methylamine uptake, tested substance 500 μM, read-out: Activity relative to the control [%].
Setting [8] is: tested substance 2 mM, read-out: Activity relative to the control [%].
[9] abbreviates: pH 3.8, read-out: Activity relative to the control [%].
Setting [10] is: [14C]-methylamine uptake, tested substance 500 μM.
Where [11] appears, read: pH 7, read-out: Activity relative to the control [%].

For the molecule `OC[C@H]1O[C@@](CO)(O[C@H]2O[C@H](CO)[C@@H](O)[C@H](O)[C@H]2O)[C@@H](O[C@H]2O[C@H](CO)[C@@H](O)[C@H](O)[C@H]2O)[C@@H]1O` [Melizitose], in test [1] (setting [4]), the remaining activity at 2000 µM came out at 97.2%. Consider Altrose, for which the “Activity relative to the control [%]” value in test [1] (setting [5]) came to 80.6%. In the case of `Nc1ncnc2c1ncn2C1CC=CC1CO` (stereo not drawn), the remaining activity at 1000 µM in test [1] (setting [6]) amounted to 0%. For the molecule `CN(C)C` [Trimethylamine], the remaining activity at 500 µM in test [2] (setting [7]) was determined as 89%. Turning to `O=C(CO)[C@@H](O)[C@H](O)[C@H](O)CO[C@H]1O[C@H](CO)[C@@H](O)[C@H](O)[C@H]1O` [Palatinose], the remaining activity at 2000 µM was determined as 85% in test [1] (setting [4]) and 102% in test [3] (setting [8]).

Take `OC[C@H]1OC(O)[C@@H](O)[C@@H](O)[C@@H]1O` (stereo partly drawn) [Mannose]: in test [1] (setting [9]), the remaining activity at 2000 µM came out at 86.5%. With `OC[C@H]1O[C@@H](O[C@H]2[C@H](O)[C@@H](O)[C@H](O)O[C@@H]2CO)[C@H](O)[C@@H](O)[C@H]1O` [β-Lactose], the remaining activity at 2000 µM in test [1] (setting [4]) worked out at 94.9%; in test [3] (setting [8]) it was 91%.

Consider `[Cl-].[K+]` [KCl], for which the “Activity relative to the control [%]” value in test [2] (setting [10]) worked out at 98%. As for `O=C(CO)[C@@H](O)[C@@H](O)[C@H](O)CO` [Tagatose], the results for the remaining activity at 2000 µM in test [1] (setting [4]) and in test [3] (setting [8]) were 105% and 103%, respectively.

For the molecule `OC[C@H]1O[C@H](OC[C@H]2OC(O)[C@H](O)[C@@H](O)[C@@H]2O)[C@H](O)[C@@H](O)[C@H]1O` (stereo partly drawn) [Melibiose], in test [1] (setting [4]), the remaining activity at 2000 µM was 92.3%. Consider `OC[C@H]1OC(O)[C@H](O)[C@@H](O)[C@H]1O` (stereo partly drawn) [Galactose], for which, in test [1] (setting [9]), the remaining activity at 2000 µM was 97.7%. `CCN` [Ethylamine]: the remaining activity at 500 µM in test [2] (setting [7]) stood at 93%. For `[Cl-].[Cs+]` [CsCl], the “Activity relative to the control [%]” value in test [2] (setting [10]) came to 98%.

Take `[Cl-].[Rb+]` [RbCl]: the “Activity relative to the control [%]” value in test [2] (setting [10]) is 96%. On to Antimycin A, for which the “Activity relative to the control [%]” value in test [2] ([14C]-methylamine uptake, tested substance 10 μg/ml) is 8%. For `OC[C@H]1O[C@H](Oc2ccccc2)[C@H](O)[C@@H](O)[C@@H]1O` [α-Phenylglucose], the “Activity relative to the control [%]” value in test [1] (setting [5]) came out at 8.0%; in test [3] (tested substance 2 mM) it was 7%. On to `NC1CC(CO)C(O)C1O` (stereo not drawn), for which the remaining activity at 1000 µM in test [1] (setting [6]) came out at 0%. With `Cl.N` [NH4 Cl], the “Activity relative to the control [%]” value in test [2] (setting [10]) came out at 10%. As for `CCN1C(=O)C=CC1=O` [N-Ethylmaleimide], the remaining activity at 1000 µM in test [3] (tested substance 1 mM, read-out: Activity relative to the control [%]) was determined as 22%. For the molecule `OC[C@H]1O[C@@H](O[C@H]2[C@H](O)[C@@H](O)C(O)O[C@@H]2CO)[C@H](O)[C@@H](O)[C@@H]1O` (stereo partly drawn) [Cellobiose], the remaining activity at 2000 µM in test [1] (setting [4]) stood at 99.4%.

Take `OC[C@H]1O[C@@H](O[C@H]2[C@H](O)[C@@H](O)[C@@H](O)O[C@@H]2CO)[C@H](O)[C@@H](O)[C@H]1O` [α-Lactose]: in test [1] (setting [4]), the remaining activity at 2000 µM turned out to be 81.8%. Consider `C[C@@H]1C[C@@H]([C@H](O)CC2CC(=O)NC(=O)C2)C(=O)[C@@H](C)C1` [Cycloheximide], for which, in test [2] (setting [11]), the remaining activity at 10 µg/mL turned out to be 85%. With `OC[C@H]1O[C@H](OC[C@H]2O[C@H](O[C@]3(CO)O[C@H](CO)[C@@H](O)[C@@H]3O)[C@H](O)[C@@H](O)[C@@H]2O)[C@H](O)[C@@H](O)[C@H]1O` [Raffinose], the remaining activity at 2000 µM in test [1] (setting [4]) and in test [3] (setting [8]) was 110% in each case.

With `CNC` [Dimethylamine], the remaining activity at 500 µM in test [2] (setting [11]) is 89%.

Consider `C(=NC1CCCCC1)=NC1CCCCC1` [DCCD], for which the remaining activity at 200 µM in test [2] (pH 7, [14C]-methylamine uptake, tested substance 200 μM, read-out: Activity relative to the control [%]) was 15%.
